The source of these data is US8859541B2, “6-alkynylpyridines” (Boehringer Ingelheim International GmbH, priority 2012, dated 2014).

In one experiment the target is T1, cIAP1 BIR3 (Homo sapiens, UniProt Q13490).
T1 construct: covering amino acids 256 to 363; cIAP1 BIR3; made in house; host or cells: E. coli
Nature of the experiment: cIAP1 BIR3 binding assay (DELFIA), displacement of SMAC peptide. The note with it: GST-fusion BIR3 domain (aa 256 to 363) 10 nM, SMAC peptide 10 nM; activity of the (S)-isomers. Put shortly: (§1)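 Each BIR3 domain (10 nM) incubated with biotinylated N-terminal SMAC peptide (10 nM) and compound for 1 h at room temp in Tris/NaCl buffer with BSA, DTT and Triton X-100. Captured on streptavidin plates; bound BIR3 detected by Eu-labelled anti-GST time-resolved fluorescence, giving IC50 values.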

The target in a further experiment is T2, XIAP BIR3 (Homo sapiens, UniProt P98170).
T2 construct: covering amino acids 241 to 356; XIAP BIR3; made in house; host or cells: E. coli
As to the kind of experiment: XIAP BIR3 binding assay (DELFIA), displacement of SMAC peptide. The note with it: GST-fusion BIR3 domain (aa 241 to 356) 10 nM, SMAC peptide 10 nM; activity of the (S)-isomers. Put shortly:
as §1

pIC50: −log10 of the molar value.

T1 sequence (Q13490 256-363): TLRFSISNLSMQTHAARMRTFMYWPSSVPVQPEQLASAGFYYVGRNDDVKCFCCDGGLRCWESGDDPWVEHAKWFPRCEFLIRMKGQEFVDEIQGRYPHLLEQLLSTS
T2 sequence (P98170 241-356): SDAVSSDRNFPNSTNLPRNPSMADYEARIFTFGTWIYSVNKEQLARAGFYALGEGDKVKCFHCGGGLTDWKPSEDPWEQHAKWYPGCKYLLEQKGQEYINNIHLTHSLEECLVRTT

By pIC50 is commonly meant the negative decadic logarithm of the IC50, by convention in mol/L. Lower therefore signals a high IC50. As to `CNC(C)C(=O)Nc1ccc(-c2c(C)ncn2C)c(C#Cc2ccccc2)n1` (stereo not drawn) [Example 195, N-[5-(3,5-dimethylimidazol-4-yl)-6-(2-phenylethynyl)pyridin-2-yl]-2-(methylamino)propanamide], the figures for the negative logarithm of the IC50 (pIC50) at cIAP1 BIR3 and at XIAP BIR3 were 8.40 and 6.57, respectively.

For `[2H]C([2H])([2H])NC(C)C(=O)Nc1ccc(-c2c(C)noc2C)c(C#Cc2ccccc2)n1` (stereo not drawn) [Example 168, N-[5-(3,5-dimethyl-1,2-oxazol-4-yl)-6-(2-phenylethynyl)pyridin-2-yl]-2-(trideuteriomethylamino)propanamide], the values for the pIC50 on cIAP1 BIR3 and at XIAP BIR3 were 8.52 and 6.82, respectively.

As for `CNC(C)C(=O)Nc1ccc(-c2cnc(-n3ccnc3)nc2)c(C#Cc2ccccc2)n1` (stereo not drawn) [Example 192, N-[5-(2-imidazol-1-ylpyrimidin-5-yl)-6-(2-phenylethynyl)pyridin-2-yl]-2-(methylamino)propan-amide], the pIC50 on cIAP1 BIR3 was 7.66; at XIAP BIR3, 7.12.

On to `CNC(C)C(=O)Nc1ccc(-c2c(C)nc3ccccn23)c(C#Cc2ccc3c(c2)oc(=O)n3C)n1` (stereo not drawn) [Example 71, 2-(methylamino)-N-[5-(2-methylimidazo[1,2-a]pyridin-3-yl)-6-[2-(3-methyl-2-oxo-1,3-benzoxazol-6-yl)ethynyl]-pyridin-2-yl]propanamide], for which the negative-log IC50 (pIC50) at cIAP1 BIR3 was 9.00; at XIAP BIR3, 6.52.

For `CNC(C)C(=O)Nc1ccc(-c2c(C)nc(N3CCOCC3)nc2C)c(C#Cc2ccc3c(ccc(=O)n3C)c2)n1` (stereo not drawn) [Example 35, N-[5-(4,6-dimethyl-2-morpholin-4-ylpyrimidin-5-yl)-6-[2-(1-methyl-2-oxoquinolin-6-yl)ethynyl]pyridin-2-yl]-2-(methylamino)propanamide], the results for the negative-log IC50 (pIC50) at cIAP1 BIR3 and on XIAP BIR3 were 9.00 and 5.83, respectively.

Regarding `CC(N)C(=O)Nc1ccc(-c2cncc(Oc3ccccc3)c2)c(C#Cc2ccccc2)n1` (stereo not drawn) [Example 100, 2-amino-N-[5-(5-phenoxypyridin-3-yl)-6-(2-phenylethynyl)pyridin-2-yl]propanamide], the pIC50 was 6.49 at cIAP1 BIR3 and 6.34 on XIAP BIR3.

Turning to `CNC(C)C(=O)Nc1ccc(-c2cccc(NC(C)=O)c2)c(C#Cc2ccccc2)n1` (stereo not drawn) [Example 118, N-[5-(3-acetamidophenyl)-6-(2-phenylethynyl)pyridin-2-yl]-2-(methylamino)propanamide], the negative logarithm of the IC50 (pIC50) was 7.04 at cIAP1 BIR3 and 6.54 on XIAP BIR3.

Regarding `CNC(C)C(=O)Nc1ccc(-c2c(C)nc3ccccn23)c(C#Cc2ccc(-n3cncn3)cc2)n1` (stereo not drawn) [Example 37, 2-(methylamino)-N-[5-(2-methylimidazo[1,2-a]pyridin-3-yl)-6-[2-[4-(1,2,4-triazol-1-yl)-phenyl]ethynyl]pyridin-2-yl]-propanamide], the figures for the negative-log IC50 (pIC50) at cIAP1 BIR3 and on XIAP BIR3 were 9.00 and 6.78, respectively.

With `CNC(C)C(=O)Nc1ccc(-c2cncc(-c3ccccc3)c2)c(C#Cc2ccccc2)n1` (stereo not drawn) [Example 149, 2-(methylamino)-N-[6-(2-phenyl-ethynyl)-5-(5-phenylpyridin-3-yl)pyridin-2-yl]propanamide], the pIC50 at cIAP1 BIR3 is 7.10; on XIAP BIR3, 6.71.

On to `CNC(C)C(=O)Nc1ccc(-c2cnc(N3CCN(C)CC3)nc2)c(C#Cc2ccccc2)n1` (stereo not drawn) [Example 191, 2-(methylamino)-N-[5-[2-(4-methylpiperazin-1-yl)pyrimidin-5-yl]-6-(2-phenylethynyl)pyridin-2-yl]propanamide], for which the pIC50 at cIAP1 BIR3 was 7.66; on XIAP BIR3, 6.99.

For `CNC(C)C(=O)Nc1ccc(-c2ccc(C)nc2)c(C#Cc2ccccc2)n1` (stereo not drawn) [Example 147, 2-(methylamino)-N-[5-(6-methylpyridin-3-yl)-6-(2-phenyl-ethynyl)pyridin-2-yl]propanamide], the negative logarithm of the IC50 (pIC50) at cIAP1 BIR3 is 7.49; at XIAP BIR3, 6.90.

Consider `Cc1cc(C)cc(C#Cc2nc(NC(=O)C(C)N)cc3ccccc23)c1` (stereo not drawn) [Example 228, 2-amino-N-[1-[2-(3,5-dimethyl-phenyl)ethynyl]isoquinolin-3-yl]propanamide], for which the negative-log IC50 (pIC50) at cIAP1 BIR3 is 5.83; at XIAP BIR3, 5.72.

For the compound `CNC(C)C(=O)Nc1ccc(-c2c(C)nc3cc(F)ccn23)c(C#Cc2ccc3ncccc3c2)n1` (stereo not drawn) [Example 47, N-[5-(7-fluoro-2-methyl-imidazo[1,2-a]pyridin-3-yl)-6-(2-quinolin-6-ylethynyl)pyridin-2-yl]-2-(methylamino)propan-amide], the negative logarithm of the IC50 (pIC50) at cIAP1 BIR3 is 9.00; on XIAP BIR3, 6.74.

`CNC(C)C(=O)Nc1ccc(-c2c(C)nc3ccccn23)c(C#Cc2ccc3c(ccc(=O)n3C)c2)n1` (stereo not drawn) [Example 26, 2-(methylamino)-N-[5-(2-methylimidazo[1,2-a]pyridin-3-yl)-6-[2-(1-methyl-2-oxoquinolin-6-yl)ethynyl]pyridin-2-yl]propanamide]: the figures for the pIC50 on cIAP1 BIR3 and on XIAP BIR3 were 9.00 and 6.24, respectively.

On to `CC(N)C(=O)Nc1cc2ccccc2c(C#Cc2cscn2)n1` (stereo not drawn) [Example 226, 2-amino-N-[1-[2-(1,3-thiazol-4-yl)ethynyl]isoquinolin-3-yl]propanamide], for which the pIC50 on cIAP1 BIR3 is 6.48; on XIAP BIR3 it was 5.92.

For the compound `CNC(C)C(=O)Nc1ccc(-c2c(C)nc(N3CCOCC3)nc2C)c(C#Cc2ccc3c(c2)CC(=O)N3C)n1` (stereo not drawn) [Example 87, N-[5-(4,6-dimethyl-2-morpholin-4-ylpyrimidin-5-yl)-6-[2-(1-methyl-2-oxo-3H-indol-5-yl)ethynyl]pyridin-2-yl]-2-(methylamino)propanamide], the negative-log IC50 (pIC50) on cIAP1 BIR3 was 9.00; at XIAP BIR3 it was 5.84.

Consider `CNC(C)C(=O)Nc1ccc(-c2c(C)nc3ccccn23)c(C#Cc2ccc3c(c2)CC(=O)N3C)n1` (stereo not drawn) [Example 66, 2-(methylamino)-N-[5-(2-methyliniidazo[1,2-a]pyridin-3-yl)-6-[2-(1-methyl-2-oxo-3H-indol-5-yl)ethynyl]pyridin-2-yl]-propanamide], for which the results for the pIC50 at cIAP1 BIR3 and on XIAP BIR3 were 9.00 and 6.60, respectively.

For `CNC(C)C(=O)Nc1ccc(-c2ccc3c(c2)C(=O)NC3=O)c(C#Cc2ccccc2)n1` (stereo not drawn) [Example 175, N-[5-(1,3-dioxoisoindol-5-yl)-6-(2-phenylethynyl)pyridin-2-yl]-2-(methylamino)propanamide], the negative-log IC50 (pIC50) is 7.80 at cIAP1 BIR3 and 6.99 on XIAP BIR3.

On to `CNC(C)C(=O)Nc1ccc(-c2c(C)nc3ccccn23)c(C#Cc2ccc3ncccc3c2)n1` (stereo not drawn) [Example 28, 2-(methylamino)-N-[5-(2-methylimidazo[1,2-a]pyridin-3-yl)-6-(2-quinolin-6-ylethynyl)-pyridin-2-yl]propanamide], for which the values for the negative logarithm of the IC50 (pIC50) at cIAP1 BIR3 and at XIAP BIR3 were 9.00 and 6.70, respectively.

`CNC(C)C(=O)Nc1ccc(-c2c(-c3ccncc3)nc3cc(C)ccn23)c(C#Cc2ccc(-c3ccon3)cc2)n1` (stereo not drawn) [Example 82, 2-(methylamino)-N-[5-(7-methyl-2-pyridin-4-ylimidazo[1,2-a]pyridin-3-yl)-6-[2-[4-(1,2-oxazol-3-yl)phenyl]-ethynyl]pyridin-2-yl]propan-amide]: the pIC50 was 9.00 on cIAP1 BIR3 and 7.21 at XIAP BIR3.

Regarding `CNC(C)C(=O)Nc1ccc(-c2ccc3c(c2)C(=O)c2ccccc2-3)c(C#Cc2ccccc2)n1` (stereo not drawn) [Example 177, 2-(methylamino)-N-[5-(9-oxofluoren-2-yl)-6-(2-phenyl-ethynyl)pyridin-2-yl]propanamide], the negative logarithm of the IC50 (pIC50) at cIAP1 BIR3 is 7.04; at XIAP BIR3 it was 6.47.
